# According to patent US3966944A, “10 (N-methyl-4-piperidylidene)-10H[1]-benzopyrano[3,2-b]-pyridine as an analgesic, anti-inflammatory and agent against type III hypersensitivity disease” (Abbott Laboratories, priority 1975, dated 1976):
# What was measured:
# mice = assay: Analgesic Activity - Mouse Writhing Method (0.5% acetic acid IP); assay type: in vivo; conditions: for Ave. No. of Writhes/Mouse (±S.D.): 20 minute period, control saline 34.8 (8.8)
# Protocol: Analgesic Activity of 10 (N-Methyl-4-Piperidylidene)-10H[1]-Benzopyrano[3,2-b]-Pyridine -- Mouse Writhing Method
# Modified method of Whittle (Brit. J. Pharmacol. 1964, 22:246) -- Groups of 5 mice administered various dose-levels of the compound 30 minutes prior to the IP injection of 0.5% acetic acid (0.4 ml). Writhing counted for a 20 minute period following the acid injection.
# [1] = system: Carrageenin Induced Rat Paw Edema; assay: Carrageenin Induced Rat Paw Edema; assay type: in vivo, male Sprague-Dawley rats; conditions: for % INCREASE IN PAW SIZE OVER NORMAL: 3 hr. reading, 0.5% MC control 89.3%
# Protocol: Carrageenin Induced Rat Paw Edema
# The carrageenin induced rat paw edema test of Winter, et al. (Proc. Soc. Exp. Biol. and Med., 1962, 111:544) and modified by Van Arman, et al. (J. Pharmacol. Exp. Therap., 1965, 150:328) is used as a primary test for anti-inflammatory activity.
# Groups of male Sprague-Dawley rats weighing 160-220 grams are used to compare various dose levels of the test compound to control animals. The compound is administered orally to the respective groups 1 hour prior to a sub-plantar injection into the left hind paw with 0.1 ml of a 1.5% suspension of carrageenin in saline. The paws are measured volumetrically by mercury displacement prior to (normal paw), 1.5, 3 and 5 hours after the carrageenin injection.
# Activity is calculated as the percent difference (inhibition) between the increases in paw size (edema) of the test groups compared to the control groups.
# [2] = system: reverse passive Arthus reaction; assay: Reverse Passive Arthus Reaction (inhibition of the inflammatory lesion area); conditions: for % Inhibition of the Inflammatory Lesion Area: lesion excised 4 hours after Anti-B.S.A.
compound,measurement,setting,value
"10 (N-methyl-4-piperidylidene)-10H[1]-benzopyrano[3,2-b]-pyridine [A-45637]",Ave. No. of Writhes/Mouse (±S.D.),mice; 10 mg/kg oral,31.4 (16.7) Writhes/Mouse
same,% Inhibition,"mice; 10 mg/kg oral, writhing, mice",9.8%
same,Ave. No. of Writhes/Mouse (±S.D.),mice; 20 mg/kg oral,18.0 (8.3) Writhes/Mouse
same,% Inhibition,"mice; 20 mg/kg oral, writhing, mice",48.3%
same,Ave. No. of Writhes/Mouse (±S.D.),mice; 40 mg/kg oral,15.8 (8.0) Writhes/Mouse
same,% Inhibition,"mice; 40 mg/kg oral, writhing, mice",54.6%
same,Ave. No. of Writhes/Mouse (±S.D.),mice; 80 mg/kg oral,6.6 (4.6) Writhes/Mouse
same,% Inhibition,"mice; 80 mg/kg oral, writhing, mice",81.0%
same,ED50,"mice; P.O., mice, writhing, 95% CL (10.9-98.0)",29.7 mg/kg
same,% INCREASE IN PAW SIZE OVER NORMAL,[1]; 2 mg/kg oral,66.9%
same,% INHIBITION OF EDEMA (3 HR. READING),"[1]; 2 mg/kg oral, rat",25.1%
same,% INCREASE IN PAW SIZE OVER NORMAL,[1]; 4 mg/kg oral,55.3%
same,% INHIBITION OF EDEMA (3 HR. READING),"[1]; 4 mg/kg oral, rat",38.1%
same,% INCREASE IN PAW SIZE OVER NORMAL,[1]; 8 mg/kg oral,50.0%
same,% INHIBITION OF EDEMA (3 HR. READING),"[1]; 8 mg/kg oral, rat",44.0%
same,% INCREASE IN PAW SIZE OVER NORMAL,[1]; 16 mg/kg oral,33.1%
same,% INHIBITION OF EDEMA (3 HR. READING),"[1]; 16 mg/kg oral, rat",62.9%
same,ED25,"[1]; oral, rat, carrageenin paw edema, limits in parentheses","2.04 (0.34, 3.55)"
same,% Inhibition of the Inflammatory Lesion Area,"[2]; 0.75 mg/kg PO, rat",43.2%
same,% Inhibition of the Inflammatory Lesion Area,"[2]; 1.5 mg/kg PO, rat",64.4%
same,% Inhibition of the Inflammatory Lesion Area,"[2]; 2.5 mg/kg PO, rat",70.9%
same,% Inhibition of the Inflammatory Lesion Area,"[2]; 5 mg/kg PO, rat",81.2%
same,% Inhibition of the Inflammatory Lesion Area,"[2]; 10 mg/kg PO, rat",82.9%
same,Calculated ED50 value,"[2]; PO, rat, printed limits (.07, 1.5)",0.78 mg/kg
"CN(C)CCC(c1ccc(Cl)cc1)c1ccccn1 (racemic) [chlorpheninamine, reference compound]",activity in the reverse passive Arthus reaction,"[2]; 10 mg/kg, P.O.",completely inactive
"CN1CCC(=C2c3ccccc3C=Cc3ccccc32)CC1 [cyproheptadine, reference compound]",activity in the reverse passive Arthus reaction,[2]; 5 mg/kg P.O.,completely inactive
